Assay results: ChEMBL document CHEMBL1201862, “PubChem BioAssay data set” (2004)
Active and inactive are the calls of the source.

Assays:
[1] = target: Prothrombin (Bos taurus, UniProt P00735); test: thrombin protease inhibitors – biochemical, fluorescence polarization, uHTS hits, dose response (AID 602369); format: functional
[2] = target: 72 kDa type IV collagenase (Homo sapiens, UniProt P08253); test: Dose Response validation of uHTS RPN11 inhibitor hits using a MMP-2 Fluorescence assay.; format: functional
[3] = target: 26S proteasome non-ATPase regulatory subunit 14 (Homo sapiens, UniProt O00487); test: inhibition of proteasome subunit RPN11 – biochemical, fluorescence polarization, uHTS hits, confirmation (AID 602368); format: functional
[4] = non-specific 3'UTR reporter inhibition in Clone20-Shn3RL – cell-based, Renilla luciferase, cherry-picked, counter-screen for Shn3 inhibitor project, dose response (AID 624133); format: functional
[5] = reduction of Shn3 3'UTR-driven luciferase in osteoblasts – cell-based, Clone20 osteoblasts, firefly luciferase, cherry-picked, dose response (AID 624132); format: functional;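 note: firefly luciferase luminescence from reporter carrying the Shn3 3'UTR in osteoblasts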
[6] = loss of viability in HepG2 cells – cell-based, CellTiter-Glo, cherry-picked, cytotoxicity control for Shn3 inhibitor project, dose response (AID 624134); format: functional
[7] = system: SN12K1; test: cells; format: functional; settings: Homo sapiens
[8] = system: P388/ADR; test: cells; format: functional; settings: Mus musculus, P388/ADR
[9] = system: P388; test: cells; format: functional; settings: Mus musculus
[10] = target: Photoreceptor-specific nuclear receptor (Homo sapiens, UniProt Q9Y5X4); format: functional, cell-based;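 note: CHO-S cells with Gal4-NCOR and VP16-NR2E3 two-hybrid luciferase reporter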
[11] = cAMP pathway inhibition in counterscreen cell line – TR-FRET cAMP detection, counter-screen for MC4R biased antagonist project, dose response (AID 602305); format: functional, cell-based;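 note: U2OS cells stimulated with forskolin near its EC80 as the cAMP inducer; potency is for inhibition of forskolin-stimulated cAMP signaling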
[12] = target: Melanocortin receptor 4 (Homo sapiens, UniProt P32245); test: inhibitors of MC4R cAMP signaling – cell-based, TR-FRET, biased antagonists, dose response (AID 602298); format: functional;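 note: antagonist potency against agonist-stimulated cAMP production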
[13] = target: T1, Tyrosine-protein phosphatase non-receptor type 7 (Homo sapiens, UniProt P35236); test: HePTP tyrosine phosphatase activity blockers – biochemical, absorbance, leukemia target, primary screen (AID 521); format: functional
T1 sequence (P35236 whole entry): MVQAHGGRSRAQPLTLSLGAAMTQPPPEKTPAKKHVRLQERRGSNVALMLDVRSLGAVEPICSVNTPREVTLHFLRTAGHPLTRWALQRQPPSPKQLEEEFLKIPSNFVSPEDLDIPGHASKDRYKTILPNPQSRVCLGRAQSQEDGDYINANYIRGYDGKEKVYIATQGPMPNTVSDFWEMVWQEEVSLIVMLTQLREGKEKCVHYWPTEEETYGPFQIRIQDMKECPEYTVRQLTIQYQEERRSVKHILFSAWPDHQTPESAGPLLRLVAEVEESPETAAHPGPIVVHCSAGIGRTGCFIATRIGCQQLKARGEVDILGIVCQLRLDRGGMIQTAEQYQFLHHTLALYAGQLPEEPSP

[14] = target: T2, Cysteine protease ATG4B (Homo sapiens, UniProt Q9Y4P1); format: functional;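 note: Fluorescence-based dose-response confirmation assay measuring inhibition of ATG4B activity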
T2 sequence (Q9Y4P1 whole entry): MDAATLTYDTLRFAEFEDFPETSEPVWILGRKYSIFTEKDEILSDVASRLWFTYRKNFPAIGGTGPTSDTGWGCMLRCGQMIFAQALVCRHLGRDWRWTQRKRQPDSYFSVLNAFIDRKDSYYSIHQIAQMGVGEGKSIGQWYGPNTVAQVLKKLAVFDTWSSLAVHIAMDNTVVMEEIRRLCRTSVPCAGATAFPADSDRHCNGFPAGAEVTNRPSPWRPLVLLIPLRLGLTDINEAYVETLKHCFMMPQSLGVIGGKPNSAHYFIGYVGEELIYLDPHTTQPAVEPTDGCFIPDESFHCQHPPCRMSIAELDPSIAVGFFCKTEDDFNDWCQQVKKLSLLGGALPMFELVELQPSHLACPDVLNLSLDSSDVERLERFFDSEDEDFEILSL

[15] = target: Phospholipase A2 (Homo sapiens, UniProt P04054); format: functional;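 note: confirmatory dose-response counterscreen on phospholipase A2, testing hits that came from an ultra-high-throughput screen for ATG4B inhibitors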
[16] = target: Disintegrin and metalloproteinase domain-containing protein 17 (Homo sapiens, UniProt P78536); test: inhibition of ADAM17 substrate cleavage – biochemical, quenched FRET substrate, counter-screen for ADAM10 exosite inhibitor project, dose response (AID 743253)
Chain of Disintegrin and metalloproteinase domain-containing protein 17 (P78536 whole entry, the tested form may be a part): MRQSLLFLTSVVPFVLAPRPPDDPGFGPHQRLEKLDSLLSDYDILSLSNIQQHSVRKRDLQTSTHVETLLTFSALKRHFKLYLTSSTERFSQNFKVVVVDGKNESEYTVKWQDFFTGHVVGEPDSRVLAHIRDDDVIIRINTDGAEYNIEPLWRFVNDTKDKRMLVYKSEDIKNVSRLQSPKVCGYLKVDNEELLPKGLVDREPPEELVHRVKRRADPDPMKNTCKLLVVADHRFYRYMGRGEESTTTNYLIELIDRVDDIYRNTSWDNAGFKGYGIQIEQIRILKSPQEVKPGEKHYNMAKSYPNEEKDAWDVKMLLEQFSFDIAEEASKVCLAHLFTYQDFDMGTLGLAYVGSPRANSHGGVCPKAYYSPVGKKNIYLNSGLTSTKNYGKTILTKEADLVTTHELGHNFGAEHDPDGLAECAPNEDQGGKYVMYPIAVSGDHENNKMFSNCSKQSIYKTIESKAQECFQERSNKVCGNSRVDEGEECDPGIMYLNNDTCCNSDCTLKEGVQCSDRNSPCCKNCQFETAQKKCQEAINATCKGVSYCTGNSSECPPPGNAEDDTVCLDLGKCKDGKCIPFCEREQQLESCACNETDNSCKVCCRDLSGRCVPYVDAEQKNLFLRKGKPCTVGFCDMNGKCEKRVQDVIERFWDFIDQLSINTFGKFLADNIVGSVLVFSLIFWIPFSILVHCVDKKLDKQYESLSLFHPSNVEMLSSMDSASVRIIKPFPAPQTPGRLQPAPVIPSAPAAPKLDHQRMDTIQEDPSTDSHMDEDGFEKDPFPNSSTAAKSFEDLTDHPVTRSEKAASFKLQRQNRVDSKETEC

Chain of 26S proteasome non-ATPase regulatory subunit 14 (O00487 whole entry): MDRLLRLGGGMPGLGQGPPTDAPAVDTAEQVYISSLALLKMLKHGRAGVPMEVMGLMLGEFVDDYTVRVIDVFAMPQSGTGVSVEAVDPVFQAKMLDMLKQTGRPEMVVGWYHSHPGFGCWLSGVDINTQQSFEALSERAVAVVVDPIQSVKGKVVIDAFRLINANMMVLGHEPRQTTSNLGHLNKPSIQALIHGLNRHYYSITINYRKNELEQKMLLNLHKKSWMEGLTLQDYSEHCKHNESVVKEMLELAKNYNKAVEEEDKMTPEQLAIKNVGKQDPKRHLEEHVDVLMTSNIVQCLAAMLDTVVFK
Chain of 72 kDa type IV collagenase (P08253 whole entry): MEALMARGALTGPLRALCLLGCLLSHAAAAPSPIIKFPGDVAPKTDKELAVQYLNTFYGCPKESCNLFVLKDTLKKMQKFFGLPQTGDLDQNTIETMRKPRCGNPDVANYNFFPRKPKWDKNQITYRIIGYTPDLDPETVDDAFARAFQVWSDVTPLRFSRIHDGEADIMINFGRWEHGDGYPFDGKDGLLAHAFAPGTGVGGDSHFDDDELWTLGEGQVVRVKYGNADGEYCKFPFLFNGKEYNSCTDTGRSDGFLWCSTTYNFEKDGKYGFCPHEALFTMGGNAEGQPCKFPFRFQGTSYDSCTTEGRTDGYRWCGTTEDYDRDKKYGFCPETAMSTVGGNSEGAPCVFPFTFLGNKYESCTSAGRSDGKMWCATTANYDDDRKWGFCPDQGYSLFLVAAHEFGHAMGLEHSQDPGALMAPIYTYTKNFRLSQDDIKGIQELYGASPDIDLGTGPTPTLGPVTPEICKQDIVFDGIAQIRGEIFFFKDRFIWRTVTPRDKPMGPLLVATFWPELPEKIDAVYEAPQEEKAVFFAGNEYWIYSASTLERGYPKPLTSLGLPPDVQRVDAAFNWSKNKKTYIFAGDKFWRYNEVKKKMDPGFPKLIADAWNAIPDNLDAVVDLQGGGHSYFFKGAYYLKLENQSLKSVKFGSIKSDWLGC
Chain of Phospholipase A2 (P04054 whole entry, the tested form may be a part): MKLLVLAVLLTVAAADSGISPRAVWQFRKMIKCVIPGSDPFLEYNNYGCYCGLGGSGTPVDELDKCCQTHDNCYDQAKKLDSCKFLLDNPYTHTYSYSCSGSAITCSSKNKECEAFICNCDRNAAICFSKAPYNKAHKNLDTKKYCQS
Chain of Photoreceptor-specific nuclear receptor (Q9Y5X4 whole entry, the tested form may be a part): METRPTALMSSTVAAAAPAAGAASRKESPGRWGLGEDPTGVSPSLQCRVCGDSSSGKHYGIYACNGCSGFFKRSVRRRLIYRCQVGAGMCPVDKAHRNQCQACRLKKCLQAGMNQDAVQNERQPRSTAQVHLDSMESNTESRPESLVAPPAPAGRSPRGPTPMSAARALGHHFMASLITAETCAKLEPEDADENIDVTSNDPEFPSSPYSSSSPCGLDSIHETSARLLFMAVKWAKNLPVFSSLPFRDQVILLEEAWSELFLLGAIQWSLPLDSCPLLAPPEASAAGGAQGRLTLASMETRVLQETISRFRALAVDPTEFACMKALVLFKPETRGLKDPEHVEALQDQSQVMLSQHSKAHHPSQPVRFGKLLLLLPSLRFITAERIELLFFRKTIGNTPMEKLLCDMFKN
Chain of Melanocortin receptor 4 (P32245 whole entry): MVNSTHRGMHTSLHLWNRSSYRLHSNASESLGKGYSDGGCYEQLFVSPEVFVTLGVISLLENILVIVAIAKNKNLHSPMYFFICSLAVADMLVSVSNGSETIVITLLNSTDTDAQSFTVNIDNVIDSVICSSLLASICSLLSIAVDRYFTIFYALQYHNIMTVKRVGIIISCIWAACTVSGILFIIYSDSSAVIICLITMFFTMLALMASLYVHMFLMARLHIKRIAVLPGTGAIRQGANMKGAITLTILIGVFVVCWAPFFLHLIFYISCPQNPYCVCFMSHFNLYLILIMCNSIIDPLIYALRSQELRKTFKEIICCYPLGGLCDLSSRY

For `CCc1ccccc1OCC(=O)Nc1ccc(N2CCCC2)cc1C`, the IC50 [1] was 9.96 µM (active), the IC50 [2] was 89 µM (active) and the IC50 [3] was 46.2 µM (active).

In the case of `Cc1n[nH]c2ccc(-c3cncc(OC[C@@H](N)Cc4c[nH]c5ccccc45)c3)cc12` [A-443654], the AC50 [4] is reported as 2.85 µM (active), the AC50 [5] is reported as 1.77 µM (active) and the AC50 [6] is reported as 7.4 µM (active).

With `COCOc1ccc(OC)cc1` the GI50 [7] was > 100 µM (inactive), the GI50 [8] was > 100 µM (inactive) and the GI50 [9] was > 100 µM (inactive).

With `Cc1nc(NC(=O)c2c(-c3ccccc3Cl)noc2C)sc1C` the IC50 [10] was 4.19 µM (active).

For `Cc1ncn(-c2ccc(C(=O)Oc3ccccc3)cn2)n1`, the IC50 [11] was > 64.5 µM (inactive) and the IC50 [12] was > 64.5 µM (inactive).

With `COc1ccc(-c2n[nH]c(C(F)(F)F)c2-c2cc3ccccc3o2)c(O)c1` the IC50 [13] was > 100 µM (not active), the IC50 [14] was 9.42 µM (active) and the IC50 [15] was 7.64 µM (active). The IC50 [16] was > 69.5 µM (inactive).

With `N/C(=N/O)N/N=C\c1cc(Cl)cc(Cl)c1O` the GI50 [7] was 0.366 µM (active), the GI50 [8] was 0.998 µM (active) and the GI50 [9] was 0.0182 µM (active).

In the case of `CCOC(=O)C1=C(Nc2ccc(OC)cc2)S/C(=C\c2ccc(-c3ccccc3C(=O)O)o2)C1=O`, the IC50 [1] is reported as 13.1 µM (active), the IC50 [2] is reported as > 100 µM (inactive) and the IC50 [3] is reported as 17.8 µM (active).

For `N/C(=N\O)N/N=C/c1ccc2c(c1)OCCO2`, the GI50 [7] was 2.88 µM (inactive), the GI50 [8] was 12.8 µM (inactive) and the GI50 [9] was 13.1 µM (inactive).
